{"source": "patent US20130156845A1", "about": "“LIPID FORMULATED SINGLE STRANDED RNA” (ALNYLAM PHARMACEUTICALS, INC., priority 2010, published 2013)", "key": {"[1]": {"test": "Modified ssRNA 5′-phosphate serum stability assay (Example 60)", "assay_type": "in vitro ADME", "details": "full length ssRNA with 5′-terminal phosphate; 10 μM in 95% fresh mouse serum, 37° C., LC/MS", "from_the_text": "A serum stability assay is useful for evaluating the stability of oligomeric compounds in the presences of nucleases and other enzymes found in serum. For example, the stability of a 5′-terminal phosphate group of an oligomeric compound can be evaluated by assessing the ability of the 5′-terminal phosphate group to remain attached to the oligomeric compound in the presence of serum. Accordingly, a serum stability assay was employed to evaluate the stability of modified ssRNAs having a 5′-terminal phosphate group.\nVarious modified ssRNAs, shown below, having a 5′-terminal phosphate group (10 μM) were dissolved in 95% of fresh mouse serum and incubated at 37° C. Aliquots of serum (100 μL) were removed after 0, 1, 3, 6 or 24 hours of incubation times. The serum samples were immediately quenched and snap frozen. The samples were extracted by the strong anion exchange (SAX) and octadecylsilyl (C-18) columns. For each incubation time, the amount of full length modified ssRNA having a 5′-terminal phosphate group was determined by LC/MS, and the half-life of the full length modified ssRNA having a 5′ terminal phosphate group was calculated. The results are expressed as half-time (T1/2) in the table below."}, "PTEN [2]": {"test_system": "PTEN", "test": "PTEN mRNA reduction in HeLa cells, dose response (Example 64)", "assay_type": "cell-based, human", "details": "real-time PCR, 1.56-50 nM", "procedure": "A dose response experiment was performed targeting PTEN in human HeLa cells to determine the effects of placement of sugar and internucleoside linkages within ssRNAs. More specifically, the modified ssRNAs were tested for their ability to reduce PTEN mRNA in cultured cells. The modified ssRNAs are shown below, and contain 2′-OMe and 2′-fluoro modified nucleosides, two 2′-O-MOE modified nucleosides at the 3′-terminus, and seven phosphorothioate linkages at the 3′-terminus of the ssRNAs.\nHeLa cells were treated with ssRNAs shown below at concentrations of 1.56 nM, 3.13 nM, 6.25 nM, 12.5 nM, […] and 50 nM using methods described herein. Levels of mRNA were determined using real-time PCR methods as described herein. The IC50 for each ssRNA was determined."}, "[3]": {"test": "ssRNA stability in hepatocyte cell homogenate assay (Example 65)", "assay_type": "in vitro ADME", "details": "mouse hepatocyte homogenate, LC-MS; Test 1", "procedure": "Hepatocytes were harvested from bal/c mice in ice-cold hepatocyte wash media (William E Media) with fetal bovine serum, sedimented by centrifugation at 1000 g for 8 minutes and then washed with hepatocyte wash media. Hepatocytes were homogenized with RIPA buffer (50 mM Tris pH 7.5, 10 mM MgCl2, 150 mM NaCl, 0.5% NP-40 alternative, one tablet of Roche protease inhibitor #11836170001), and centrifuged at 14000 g for 15 minutes at 4° C. and the supernatant was removed and stored in ice. Protein concentration (BSA mg/mL) was determined with Bradford assay and adjusted to a final protein concentration of 2 mg/mL by addition of Ripa buffer volume or cell homogenate volume.\n[…] were homogenized in a homogenation buffer (20 mM Tris, pH 8, 20 mM EDTA and 0.1 M NaCl in 0.5% NP-40) at time points 0, 5, 10, 20, 30, 40 and 60 minutes (Exception: 06/408877 at time points 0, 15, 30, 60, 120 and 240 mins, 06/409044, at time points 0, 0.5, 1, 2, 4, 8, and 18 hours). An internal standard (18/355868, a 27-mer, 2′-O-methoxyethyl-modified phosphorothioate oligonucleotide, or 19/116847, a 5-10-5 gappmer, 2′-O-methoxyethyl-modified phosphorothioate oligonucleotide) with concentration at 20 ug/g was added prior to extraction. Tissue samples were extracted with 70 μL of NH4OH and 240 μL of phenol/chloroform/isoamyl alcohol (25:24:1). The supernatant was removed after centrifugation at 14000 rpm for 2 min. The remaining extractant was vortexed with an additional […] of water and the aqueous layer was removed and combined with the supernatant after centrifugation at 14000 rpm for 2 minutes.\nTriethylammonium acetate solution at 1M ([…]) was added to the supernatant. The aqueous layer of the mixture was loaded onto the pre-conditioned Biotage™ Phenyl Solid Phase Extraction Plate (SPE plate) after centrifugation at 9000 rpm for 20 minutes. The SPE plate was washed several times with water. The sample was then eluted with 1.5 mL of 1% TEA in 90% MeOH and filtered through the Protein Precipitation Plate (Phenomenex™). The elutent was evaporated to dryness and diluted to 200 μL with 50% quenching buffer (8 M urea, 50 mM EDTA) and water before sample injection.\nAn Agilent 1100 Series LC/MSD system was connected in-line to a mass spectrometry. Mass spectrometer was operated in the electrospray negative ionization mode. The nebulizer nitrogen gas was set at […] and the drying nitrogen gas was set at 12 L/min. The drying temperature was 325° C. Samples (25 μL/well) were introduced via an auto sampler and reversed-phase chromatography was carried out with an XBridge OST C18 2.5 μm 2.1 mm×50 mm HPLC column using a flow rate of 300 μL/min at 55° C. The ion pair buffers consisted of A: 5 mM tributylammonium acetate (TBAA) in 20% acetonitrile and B: […] TBAA in 90% acetonitrile and the loading buffer was 25 mM TBAA in 25% Acetonitrile. Separation was performed on a 30% to 70% B in 9 min and then 80% B in 11 min gradient.\nQuantitative analysis of oligonucleotide and internal standard by extracted ion chromatograms of the most abundant ions was performed using MSD ChemStation software. The results are expressed as half-time (T1/2) in the table below."}, "PTEN [4]": {"test_system": "PTEN", "test": "PTEN mRNA reduction in HeLa cells, dose response (Example 72)", "assay_type": "cell-based, human", "details": "percent inhibition of PTEN mRNA, 0.167-50 nM", "procedure": "In accordance with the present disclosure, oligomeric compounds were synthesized and tested for their ability to reduce PTEN expression over a range of doses. Human HeLa cells were treated with the following oligomeric compounds. A dose comparison was evaluated with dose concentrations of 0.167, 0.5, 1.5, 5, 15 and 50 nM using methods described herein. Expression levels of PTEN were determined using real-time PCR and normalized to RIBOGREEN™ using methods described herein. The percent inhibition of PTEN mRNA was determined and the resulting dose-response curves were used to determine the IC50. The IC50s are listed below."}, "[5]": {"test": "Phosphate stability in mouse serum (Example 68)", "protocol": "Single-stranded oligomeric compounds were tested for stability in mouse serum."}}, "note": "e = 2'-O-(2-methoxyethyl) (MOE); {P} = phosphate; f = 2'-fluoro"}
{"substance": "P-UfUfGfUfCfUfCfUfGfGfUfCfCfUfUfAfCfUfUfAeAe (antisense UUGUCUCUGGUCCUUACUUAA; sugars from the 5' end f19 e2, 5' {P}, backbone not given here) [ISIS 404320]", "values": [{"measurement": "T1/2", "setting": "[1]", "value": 240, "unit": "min"}, {"measurement": "IC50", "setting": "PTEN [2]", "value": 5.8, "unit": "nM"}, {"measurement": "T1/2 Test 1", "setting": "[3]", "value": 4, "unit": "min"}, {"measurement": "IC50", "setting": "PTEN [4]", "value": 7.6, "unit": "nM"}, {"measurement": "T1/2 full length", "setting": "[5]; four compounds tested separately, second table", "value": 24, "unit": "min"}, {"measurement": "T1/2 full length", "setting": "[5]; full compound with intact phosphorous moiety, first table", "value": 24, "unit": "min"}]}
